Values quoted from earlier work in patent US8091801B2, “Generation of therapeutic microfoam” (BTG International Limited, priority 1999, dated 2012).

Conditions: in water at STP

Structure (SMILES)	Mole Fraction Solubility
[He] [Helium]	0.7 10^−5
[N-]=[N+]=O [Nitrous oxide]	43.7 10^−5
O=O [Oxygen]	2.3 10^−5
